Legend:
[1] = biological target: Serine/threonine-protein kinase mTOR (Homo sapiens) (UniProt P42345); test: FRAP1 (mTOR) Kinase screen; conditions: Compound concentration 1.0 uM
[2] = biological target: Adenosine Transporter (Cavia porcellus, UniProt H0V4R7+H0UUG1+H0V3Z5); test: (§1) Inhibition of Transporter, Adenosine at compound concentration of 10.0 uM in the Eurofins-Panlabs radioligand binding assay (Eurofins_assay_202000); assay type: protein assay; set-up: ligand concentration 0.5 nM, non-specific ligand with concentration 5 uM Nitrobenzylthioinosine, incubation time 30 min, incubation temperature 25 C
[3] = biological target: Adenosine Transporter (Cavia porcellus) (UniProt H0V4R7+H0UUG1+H0V3Z5); test: as §1; assay type: protein assay; set-up: ligand concentration 0.5 nM, non-specific ligand with concentration 5 uM Nitrobenzylthioinosine, incubation time 30 min, incubation temperature 25 C
[4] = biological target: Serine/threonine-protein kinase pim-1 (Homo sapiens) (UniProt P11309); test: PIM1 Kinase screen; conditions: Compound concentration 1.0 uM
Sequence of Serine/threonine-protein kinase pim-1 (Homo sapiens) (P11309 whole entry, looked up): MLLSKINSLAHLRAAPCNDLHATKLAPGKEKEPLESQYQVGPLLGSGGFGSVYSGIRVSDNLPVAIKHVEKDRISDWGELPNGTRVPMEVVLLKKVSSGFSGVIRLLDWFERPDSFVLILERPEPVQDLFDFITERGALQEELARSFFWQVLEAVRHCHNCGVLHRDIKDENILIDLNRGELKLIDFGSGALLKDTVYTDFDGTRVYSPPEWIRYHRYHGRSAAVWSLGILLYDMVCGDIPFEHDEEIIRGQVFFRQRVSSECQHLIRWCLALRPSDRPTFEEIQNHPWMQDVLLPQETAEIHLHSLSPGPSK

[5] = biological target: T1, MAP/microtubule affinity-regulating kinase 4 (Homo sapiens) (UniProt Q96L34); test: MARK4 Kinase screen; conditions: Compound concentration 1.0 uM
T1 sequence (whole entry): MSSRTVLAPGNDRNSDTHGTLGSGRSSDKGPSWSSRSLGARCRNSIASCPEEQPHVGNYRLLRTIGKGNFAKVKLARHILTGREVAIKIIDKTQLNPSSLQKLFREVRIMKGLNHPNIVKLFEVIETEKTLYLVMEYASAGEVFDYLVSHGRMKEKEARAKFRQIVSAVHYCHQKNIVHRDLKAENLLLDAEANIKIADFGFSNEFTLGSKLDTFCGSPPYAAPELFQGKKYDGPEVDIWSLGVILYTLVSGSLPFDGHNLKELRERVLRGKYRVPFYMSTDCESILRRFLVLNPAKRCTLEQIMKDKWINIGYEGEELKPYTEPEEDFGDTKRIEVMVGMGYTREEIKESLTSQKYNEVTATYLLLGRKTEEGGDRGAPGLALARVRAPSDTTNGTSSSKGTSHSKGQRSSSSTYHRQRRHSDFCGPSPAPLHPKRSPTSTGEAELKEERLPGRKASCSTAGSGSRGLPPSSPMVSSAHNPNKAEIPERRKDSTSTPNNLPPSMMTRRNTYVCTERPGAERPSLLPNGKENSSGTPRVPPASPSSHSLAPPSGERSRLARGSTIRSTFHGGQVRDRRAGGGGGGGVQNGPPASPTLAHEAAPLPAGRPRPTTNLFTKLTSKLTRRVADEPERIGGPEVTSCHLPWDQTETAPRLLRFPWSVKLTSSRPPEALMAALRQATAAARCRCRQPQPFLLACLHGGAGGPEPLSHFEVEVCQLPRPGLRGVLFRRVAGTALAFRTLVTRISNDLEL

[6] = system: Platelet-derived growth factor receptor alpha (Homo sapiens), P16234 [V561D]; test: PDGFRA V561D Kinase screen; conditions: Compound concentration 1.0 uM
Sequence of Platelet-derived growth factor receptor alpha (Homo sapiens), P16234 [V561D] (P16234 whole entry V561D): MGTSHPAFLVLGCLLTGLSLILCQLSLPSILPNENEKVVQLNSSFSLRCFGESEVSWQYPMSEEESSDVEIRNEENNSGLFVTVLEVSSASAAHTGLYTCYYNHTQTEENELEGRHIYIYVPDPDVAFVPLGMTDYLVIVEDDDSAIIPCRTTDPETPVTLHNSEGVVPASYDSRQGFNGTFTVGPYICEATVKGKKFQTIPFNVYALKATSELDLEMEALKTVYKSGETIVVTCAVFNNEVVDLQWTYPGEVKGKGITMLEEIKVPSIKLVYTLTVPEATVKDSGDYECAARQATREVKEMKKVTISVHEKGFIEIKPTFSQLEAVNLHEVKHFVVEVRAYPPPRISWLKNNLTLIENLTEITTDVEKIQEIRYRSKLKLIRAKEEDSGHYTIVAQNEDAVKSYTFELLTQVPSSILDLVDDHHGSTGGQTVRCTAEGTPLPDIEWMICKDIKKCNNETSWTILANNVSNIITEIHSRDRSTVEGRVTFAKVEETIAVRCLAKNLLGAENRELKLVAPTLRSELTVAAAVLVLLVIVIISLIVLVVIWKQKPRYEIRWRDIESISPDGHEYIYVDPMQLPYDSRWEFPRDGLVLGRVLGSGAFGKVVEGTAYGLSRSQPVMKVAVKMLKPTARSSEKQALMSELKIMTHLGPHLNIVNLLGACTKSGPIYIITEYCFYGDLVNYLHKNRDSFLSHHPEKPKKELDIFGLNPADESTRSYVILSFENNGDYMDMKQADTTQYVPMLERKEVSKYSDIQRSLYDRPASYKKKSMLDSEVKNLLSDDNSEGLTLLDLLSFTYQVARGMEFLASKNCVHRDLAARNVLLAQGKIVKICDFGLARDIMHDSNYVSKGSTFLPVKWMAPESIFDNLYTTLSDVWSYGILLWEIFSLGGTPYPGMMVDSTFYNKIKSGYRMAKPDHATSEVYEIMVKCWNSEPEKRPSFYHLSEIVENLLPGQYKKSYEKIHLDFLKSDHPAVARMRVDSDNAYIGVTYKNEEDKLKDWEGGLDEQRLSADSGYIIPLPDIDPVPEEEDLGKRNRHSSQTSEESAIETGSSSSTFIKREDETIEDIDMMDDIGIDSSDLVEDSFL

[7] = biological target: Tyrosine-protein kinase Lyn (Homo sapiens) (UniProt P07948); test: LYN B Kinase screen; conditions: Compound concentration 1.0 uM
Sequence of Tyrosine-protein kinase Lyn (Homo sapiens) (P07948 2-512 limits assumed): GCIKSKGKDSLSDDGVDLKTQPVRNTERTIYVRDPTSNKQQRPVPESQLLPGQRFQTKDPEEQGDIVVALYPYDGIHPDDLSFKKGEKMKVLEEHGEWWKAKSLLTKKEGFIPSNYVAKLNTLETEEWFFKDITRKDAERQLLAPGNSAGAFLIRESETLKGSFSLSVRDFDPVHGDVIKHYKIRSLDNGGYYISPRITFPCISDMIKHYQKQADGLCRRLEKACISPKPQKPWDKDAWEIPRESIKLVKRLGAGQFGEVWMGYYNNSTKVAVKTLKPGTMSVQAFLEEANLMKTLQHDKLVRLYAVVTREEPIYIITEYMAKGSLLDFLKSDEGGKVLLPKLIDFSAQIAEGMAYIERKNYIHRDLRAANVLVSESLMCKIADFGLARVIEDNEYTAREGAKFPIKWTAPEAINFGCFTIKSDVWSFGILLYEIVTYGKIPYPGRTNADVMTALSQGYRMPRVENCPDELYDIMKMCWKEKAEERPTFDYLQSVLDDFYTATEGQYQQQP

[8] = biological target: Phosphatidylinositol 4-kinase alpha (Homo sapiens) (UniProt P42356); test: PI4KA (PI4K alpha) Kinase screen; conditions: Compound concentration 1.0 uM
[9] = biological target: Protein kinase C delta type (Homo sapiens) (UniProt Q05655); test: PRKCD (PKC delta) Kinase screen; conditions: Compound concentration 1.0 uM
[10] = biological target: Beta-2 adrenergic receptor (Homo sapiens) (UniProt P07550); conditions: Compound concentration 10.0 uM
Sequence of Beta-2 adrenergic receptor (Homo sapiens) (P07550 whole entry, looked up): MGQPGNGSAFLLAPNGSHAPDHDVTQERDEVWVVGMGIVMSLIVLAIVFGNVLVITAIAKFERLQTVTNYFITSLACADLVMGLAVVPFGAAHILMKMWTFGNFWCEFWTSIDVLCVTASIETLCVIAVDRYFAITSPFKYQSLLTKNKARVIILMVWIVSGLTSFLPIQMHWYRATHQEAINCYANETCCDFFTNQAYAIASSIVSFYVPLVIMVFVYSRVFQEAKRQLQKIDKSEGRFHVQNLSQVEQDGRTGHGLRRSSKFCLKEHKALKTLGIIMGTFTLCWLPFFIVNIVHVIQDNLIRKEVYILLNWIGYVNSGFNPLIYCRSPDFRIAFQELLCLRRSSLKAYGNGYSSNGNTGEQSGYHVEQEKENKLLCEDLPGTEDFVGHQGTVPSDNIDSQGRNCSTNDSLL

[11] = biological target: T2, TGF-beta receptor type-1 (Homo sapiens) (UniProt P36897); test: TGFBR1 (ALK5) Kinase screen; conditions: Compound concentration 1.0 uM
T2 sequence (whole entry): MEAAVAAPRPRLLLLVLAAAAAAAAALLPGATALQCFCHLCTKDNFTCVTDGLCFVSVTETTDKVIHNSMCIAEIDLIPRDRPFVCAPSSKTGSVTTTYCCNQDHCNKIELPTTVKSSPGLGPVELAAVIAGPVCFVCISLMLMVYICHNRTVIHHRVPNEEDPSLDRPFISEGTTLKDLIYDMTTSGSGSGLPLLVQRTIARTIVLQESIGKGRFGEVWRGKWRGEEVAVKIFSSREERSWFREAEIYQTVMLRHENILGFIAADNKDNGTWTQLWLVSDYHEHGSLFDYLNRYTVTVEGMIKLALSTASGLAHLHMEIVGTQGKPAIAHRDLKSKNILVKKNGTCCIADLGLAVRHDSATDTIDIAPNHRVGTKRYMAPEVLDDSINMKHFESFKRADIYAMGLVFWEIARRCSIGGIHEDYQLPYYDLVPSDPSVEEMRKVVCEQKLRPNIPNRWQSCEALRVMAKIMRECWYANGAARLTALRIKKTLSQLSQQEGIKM

[12] = biological target: Serine/threonine-protein kinase PLK3 (Homo sapiens) (UniProt Q9H4B4); test: PLK3 Kinase screen; conditions: Compound concentration 1.0 uM
Sequence of Serine/threonine-protein kinase PLK3 (Homo sapiens) (Q9H4B4 whole entry, looked up): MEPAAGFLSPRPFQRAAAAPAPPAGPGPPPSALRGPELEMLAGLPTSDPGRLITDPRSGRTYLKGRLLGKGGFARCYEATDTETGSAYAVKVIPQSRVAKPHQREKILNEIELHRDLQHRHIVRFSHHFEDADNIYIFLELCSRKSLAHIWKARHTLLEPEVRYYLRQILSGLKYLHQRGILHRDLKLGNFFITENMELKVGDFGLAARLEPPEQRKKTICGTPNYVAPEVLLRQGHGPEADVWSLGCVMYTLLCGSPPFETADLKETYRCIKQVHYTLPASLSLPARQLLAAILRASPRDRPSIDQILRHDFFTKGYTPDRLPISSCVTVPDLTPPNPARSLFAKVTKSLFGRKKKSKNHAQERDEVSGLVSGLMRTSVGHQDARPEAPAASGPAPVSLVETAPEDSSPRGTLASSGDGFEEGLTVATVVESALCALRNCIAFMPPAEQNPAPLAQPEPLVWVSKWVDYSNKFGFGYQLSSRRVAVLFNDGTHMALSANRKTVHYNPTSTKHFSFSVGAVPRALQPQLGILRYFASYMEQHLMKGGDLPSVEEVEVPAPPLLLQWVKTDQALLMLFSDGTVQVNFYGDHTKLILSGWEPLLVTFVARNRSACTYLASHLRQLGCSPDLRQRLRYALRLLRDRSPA

[13] = biological target: T3, Muscarinic acetylcholine receptor M1 (Homo sapiens) (UniProt P11229); conditions: Compound concentration 10.0 uM
T3 sequence (whole entry): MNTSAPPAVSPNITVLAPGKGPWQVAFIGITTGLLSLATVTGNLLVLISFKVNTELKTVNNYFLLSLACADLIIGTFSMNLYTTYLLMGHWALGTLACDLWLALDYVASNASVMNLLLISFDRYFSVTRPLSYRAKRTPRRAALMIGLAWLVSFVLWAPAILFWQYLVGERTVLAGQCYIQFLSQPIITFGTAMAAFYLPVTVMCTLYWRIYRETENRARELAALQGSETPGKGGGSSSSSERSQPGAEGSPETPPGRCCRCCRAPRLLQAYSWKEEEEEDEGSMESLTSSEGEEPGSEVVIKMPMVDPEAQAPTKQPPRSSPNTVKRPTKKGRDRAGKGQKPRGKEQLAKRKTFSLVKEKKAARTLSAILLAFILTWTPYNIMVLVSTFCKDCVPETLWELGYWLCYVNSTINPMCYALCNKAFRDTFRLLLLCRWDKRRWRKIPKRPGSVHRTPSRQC

[14] = biological target: Casein kinase II subunit alpha (Homo sapiens) (UniProt P68400); test: CSNK2A1 (CK2 alpha 1) Kinase screen; conditions: Compound concentration 1.0 uM
Sequence of Casein kinase II subunit alpha (Homo sapiens) (P68400 whole entry, looked up): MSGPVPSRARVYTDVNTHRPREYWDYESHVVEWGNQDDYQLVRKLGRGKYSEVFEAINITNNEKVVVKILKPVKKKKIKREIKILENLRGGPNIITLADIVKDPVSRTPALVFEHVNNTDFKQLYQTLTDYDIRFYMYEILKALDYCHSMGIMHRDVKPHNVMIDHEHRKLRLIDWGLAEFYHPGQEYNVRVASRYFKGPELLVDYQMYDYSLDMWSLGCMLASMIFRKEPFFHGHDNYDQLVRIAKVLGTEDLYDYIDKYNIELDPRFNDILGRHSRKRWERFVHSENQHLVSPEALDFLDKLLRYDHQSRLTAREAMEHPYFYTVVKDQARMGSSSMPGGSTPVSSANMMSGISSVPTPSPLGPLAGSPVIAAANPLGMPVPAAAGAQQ

[15] = species on record: Homo sapiens; test: Somatostatin sst2 Eurofins-Panlabs radioligand binding assay; set-up: ligand concentration 0.03 nM; conditions: Compound concentration 10.0 uM
[16] = system: Epidermal growth factor receptor (Homo sapiens), P00533 [T790M]; test: EGFR (ErbB1) T790M Kinase screen; conditions: Compound concentration 1.0 uM
Sequence of Epidermal growth factor receptor (Homo sapiens), P00533 [T790M] (P00533 whole entry T790M): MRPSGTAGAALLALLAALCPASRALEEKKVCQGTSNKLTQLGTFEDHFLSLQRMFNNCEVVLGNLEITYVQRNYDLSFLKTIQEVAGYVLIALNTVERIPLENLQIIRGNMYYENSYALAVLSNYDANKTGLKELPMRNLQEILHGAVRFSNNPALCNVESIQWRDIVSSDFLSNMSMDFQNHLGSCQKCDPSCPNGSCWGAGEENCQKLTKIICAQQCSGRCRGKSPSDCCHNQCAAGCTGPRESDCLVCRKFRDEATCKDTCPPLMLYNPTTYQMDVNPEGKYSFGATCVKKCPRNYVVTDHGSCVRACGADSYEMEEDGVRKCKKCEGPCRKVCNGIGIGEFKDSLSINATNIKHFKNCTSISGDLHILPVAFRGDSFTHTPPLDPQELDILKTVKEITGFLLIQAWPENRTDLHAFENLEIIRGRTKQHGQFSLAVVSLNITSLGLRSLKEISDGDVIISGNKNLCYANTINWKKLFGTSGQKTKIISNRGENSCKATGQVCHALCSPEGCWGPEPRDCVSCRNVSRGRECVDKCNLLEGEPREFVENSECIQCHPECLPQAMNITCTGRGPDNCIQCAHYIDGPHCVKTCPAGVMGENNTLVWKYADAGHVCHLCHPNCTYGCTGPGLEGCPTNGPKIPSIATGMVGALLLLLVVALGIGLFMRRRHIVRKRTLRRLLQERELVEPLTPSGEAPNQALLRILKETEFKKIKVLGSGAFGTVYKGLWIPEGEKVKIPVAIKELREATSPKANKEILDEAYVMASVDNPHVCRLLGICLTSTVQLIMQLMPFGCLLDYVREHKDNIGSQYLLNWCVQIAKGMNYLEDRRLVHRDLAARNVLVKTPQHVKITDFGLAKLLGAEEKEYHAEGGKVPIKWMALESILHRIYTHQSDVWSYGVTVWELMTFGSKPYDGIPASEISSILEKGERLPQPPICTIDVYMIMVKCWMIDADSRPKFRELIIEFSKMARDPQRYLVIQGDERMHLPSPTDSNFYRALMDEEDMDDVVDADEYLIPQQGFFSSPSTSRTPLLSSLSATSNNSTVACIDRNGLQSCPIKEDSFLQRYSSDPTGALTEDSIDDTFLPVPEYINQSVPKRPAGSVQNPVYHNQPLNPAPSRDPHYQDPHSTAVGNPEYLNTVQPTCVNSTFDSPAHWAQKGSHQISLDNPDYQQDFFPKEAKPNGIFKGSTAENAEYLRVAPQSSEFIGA

[17] = biological target: Glycogen synthase kinase-3 beta (Homo sapiens) (UniProt P49841); test: GSK3B (GSK3 beta) Kinase screen; conditions: Compound concentration 1.0 uM
Sequence of Glycogen synthase kinase-3 beta (Homo sapiens) (P49841 whole entry, looked up): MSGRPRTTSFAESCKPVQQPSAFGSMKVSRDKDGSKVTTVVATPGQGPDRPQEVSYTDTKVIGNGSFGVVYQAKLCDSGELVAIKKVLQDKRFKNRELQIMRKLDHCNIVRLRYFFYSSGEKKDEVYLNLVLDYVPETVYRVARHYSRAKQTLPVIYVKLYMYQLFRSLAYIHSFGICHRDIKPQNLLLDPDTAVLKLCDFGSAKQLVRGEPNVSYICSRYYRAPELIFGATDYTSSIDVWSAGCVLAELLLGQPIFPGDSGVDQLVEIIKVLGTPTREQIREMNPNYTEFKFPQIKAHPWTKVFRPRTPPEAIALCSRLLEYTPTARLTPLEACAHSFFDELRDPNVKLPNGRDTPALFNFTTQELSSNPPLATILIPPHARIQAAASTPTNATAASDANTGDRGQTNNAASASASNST

[18] = system: Tyrosine-protein kinase ABL1 (Homo sapiens), P00519 [T315I]; test: ABL1 T315I Kinase screen; conditions: Compound concentration 1.0 uM

C[C@@H]1CN(c2cc(-c3n[nH]c4ccc(OC5(C)CC5)cc34)ncn2)C[C@H](C)O1 [MLi-2]
inhibition [1]: 7.14% | IC50 [2]: 9.7 µM | Ki [2]: 3.32 µM | inhibition ([3]; Compound concentration 0.01 uM): 2% | inhibition ([3]; Compound concentration 0.1 uM): -1% | inhibition ([3]; Compound concentration 1.0 uM): 11% | inhibition ([3]; Compound concentration 10.0 uM): 51% | inhibition [4]: -2.73% | inhibition [5]: 15.7% | inhibition [6]: 8.06% | inhibition [7]: 3.94% | inhibition [8]: 5.35% | inhibition [9]: 3.65% | inhibition [10]: 16% | inhibition [11]: 0.904% | inhibition [12]: 4.9% | inhibition [13]: 12% | inhibition [14]: 3.5% | inhibition [15]: 13% | inhibition [16]: 3.93% | inhibition [17]: 3.53% | inhibition [18]: 9.34%
